US8362070B2, “Application of puerarin in the preparation of P2X3 mediated drugs for pain/nervous system diseases” (Nanchang University, priority 2009, dated 2013)

What was measured:
P2X3 receptor [1] = assay: Immunohistochemical analysis of P2X3 expression in dorsal root ganglion of burn rats; assay type: in vivo, rat; conditions: n=10
Experimental: SD rats (their body weights were 200±20 g) were randomly divided into the group I (sham back burn), the group II (Puerarin, intraperitoneal injection), the group III (superficial second degree back burn), the group IV (superficial second degree back burn+puerarin), the group V (control) and the group VI (superficial second degree back burn+Indocin). The rats in the group IV (superficial second degree back burn+puerarin) were subjected to intraperitoneal injection of puerarin (100 mg/kg) everyday for continuous three days 30 minutes before burn and after burn. Immunohistochemical analysis was used to detect the change in P2X3 expression in dorsal root ganglion in burn position of rats. Results of immunohistochemical analysis were subjected to analysis by using Hmias-2000 high-resolution color medical image analysis system.

P2X3 receptor mRNA = assay: In situ hybridization of P2X3 receptor mRNA in dorsal root ganglion of CCI rats; assay type: in vivo, rat; conditions: L4/L5 DRG
P2X3 protein = P2X3 protein expression in dorsal root ganglion of burn rats (band density normalized to β-actin); assay type: in vivo, rat; conditions: n=3
Experimental: SD rats (their body weights were between 200±20 g) were randomly divided into the group I (sham back burn), the group II (Puerarin, intraperitoneal injection), the group III (superficial second degree back burn), the group IV (superficial second degree back burn+puerarin), the group V (control) and the group VI (superficial second degree back burn+Indocin). The rats in the group IV (superficial second degree back burn+puerarin) were subjected to intraperitoneal injection of puerarin (100 mg/kg) everyday for continuous three days 30 minutes before burn and after burn. The rats in the group VI (superficial second degree back burn+Indocin) were subjected to intraperitoneal injection of idomethine (4 mg/kg/d) everyday for continuous three days 30 minutes before burn and after burn. Results: the optical density scanned values for the interested bands that were detected on X-ray film were read by using Alpha Imager 2200 image analysis software, and the scanned values of β-actin for different groups were used to normalize the expression level of P2X3 in corresponding groups.

P2X3 receptor [2] = target: T1, P2X3 receptor (Rattus norvegicus, UniProt P49654); assay: Whole-cell patch clamp of ATP or α,β-meATP activated current in DRG neurons of CCI rats; assay type: cell-based; conditions: for DRG neurons sensitive to exogenous ATP: ATP 1-1000 μmol/L; for α,β-meATP-activated electric current in DRG neurons: α,β-meATP 10 μmol/L
T1 construct: The method for neuron sample isolated from DRG of rats was briefly described as below; endogenous in cells; host or cells: acutely dissociated L4/L5 DRG neurons of SD rats
T1 sequence (P49654 1-397): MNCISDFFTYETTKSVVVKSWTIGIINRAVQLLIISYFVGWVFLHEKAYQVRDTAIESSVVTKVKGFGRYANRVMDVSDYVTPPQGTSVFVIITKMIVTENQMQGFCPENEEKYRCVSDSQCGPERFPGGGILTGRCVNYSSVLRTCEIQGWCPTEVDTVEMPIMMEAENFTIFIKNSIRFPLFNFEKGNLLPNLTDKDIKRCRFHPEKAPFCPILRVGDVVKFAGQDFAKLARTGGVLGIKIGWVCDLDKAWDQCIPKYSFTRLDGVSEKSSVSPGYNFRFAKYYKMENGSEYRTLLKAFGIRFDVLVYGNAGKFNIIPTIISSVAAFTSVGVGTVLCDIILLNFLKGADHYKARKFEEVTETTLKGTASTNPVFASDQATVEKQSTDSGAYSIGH
Source text: The method for neuron sample isolated from DRG of rats was briefly described as below: the rats were knocked down and their skin in the back was cut open rapidly after decollation. The ribs that were connected to the spinal column at both sides were cut apart and the thoracolumbar spine was taken out and cut in half through the middle of the spine. The samples were kept in O2 saturated DMEM solution (Dubecco's Modified Eagle's medium), pH 7.40, and the osmotic pressure of this solution was 340 mOsm/kg. The sections L4 and L5 of nerve ganglion and connected nerve roots (dorsal nerve roots and ventral roots) as well as the spinal nerves were taken out inside the open vertebral canal, the connected nerves and adjacent connective tissue capsule were carefully removed by using fine corneal scissors and hairspring tweezer under an anatomical microscope, and the cleaned DRG should be cut into small pieces as far as possible and transferred to a culture flask, trypsin (type III, sigma) 0.5 g/L and collagenase (type IA, sigma) 1.0 g/L was then added, and the culture flask was incubated in a constant temperature shaking water bath (35 °C, 80 times/min) for 20-30 minutes, then proper amount of Soya beam trypsin inhibitor (type […]-s, Sigma) was added to stop the enzymatic digestion. The DRG cells after the above mentioned enzymatic and mechanical isolation were transferred to 35 mm culture dishes, and then they were kept still on the object stage of an inverted microscope for solution change for 30 minutes, subsequently the whole-cell patch clamp technique was utilized to record the effects of puerarin on ATP or α,β-meATP activated electric current. • (1) Carefully examining the connection and original setting of equipments in the experimental system. • (2) Turning on the power switch. • (3) Electrode installation: connecting the reference electrode, filling the glass electrode and then installing it on the electrode clamp holder. Notice: the electrode should not be over-filled; contacting the shielding can with hands before installing the electrodes in order to release the static electricity on the body. • (4) Phase boundary potential compensation and electrode resistance determination: filling solution in the microelectrode under the “searching” mode, adjusting the phase boundary potential compensation and measuring electrode resistance according to the responsive amplitude of electric current that was induced by pulsed voltage square wave. • (5) Cell sealing: adjusting the micro-operator to get the tip of the microelectrode close to the surface of the cell and a negative pressure is produced in the micro-electrode and thus the Giga-Ohm seal was formed. • (6) Rapid electric capacity compensation: adjusting the rapid electric capacity compensation and making the output signal free of ingredients of rapid electric capacitive current. • (7) Absorbing the cell membrane until it was disrupted: the working mode was switched to “forcipressure”. The membrane was absorbed until it was disrupted after the high resistance sealing was formed between the electrode and the cell (1-10 GΩ). The holding potential (H.P) was kept at −60 mV, and low pass membrane current was used (1 kHz, −3 dB). • (8) Slow capacitive compensation: adjusting the slow capacitive compensation and making the output signal free of ingredients of slow electric capacitive current. Tandem resistance compensation: adjusting the tandem resistance compensation until no shock was produced. The equipment for record of patch clamp was CEZ-2400 type patch clamp amplifier (Nihon-Kohden, Japan). The membrane was further absorbed until it was disrupted after the high resistance formed between the electrode and the cell membrane (1˜10 GΩ), and the capacitance and the tandem resistance compensation were adjusted. The holding potential (HP) was kept at −60 mV, low pass membrane current was used (1 kHz, −3 dB). The experimental results were traced by using the two-way recorder (LMS-2B, Chengdu). […]

[3] = superficial second degree back burn + drug (puerarin 100 mg/kg i.p. three days), burn 1.21±0.04, control 1.03±0.02
[4] = CCI rats + drug, 14 days after operation, CCI 1.33±0.02, control 0.82±0.02
[5] = superficial second degree back burn + drug (puerarin 100 mg/kg i.p., idomethine 4 mg/kg/d i.p., three days), burn 1.23±0.06, control 0.98±0.02

Row | Structure (SMILES) | average optical density (P2X3 expression, immunohistochemistry, DRG) (P2X3 receptor [1]; [3]) | average optical density of P2X3 positive neurons (P2X3 receptor mRNA, in situ hybridization) (P2X3 receptor mRNA; [4]) | protein expression level of P2X3 (after normalization with corresponding β-actin) (P2X3 protein; [5]) | ATP-activated electric current in DRG neurons in comparison to CCI group (P2X3 receptor [2]; CCI rats + Indocin, p<0.05) | DRG neurons sensitive to exogenous ATP (P2X3 receptor [2]; CCI rats + drug) [%] | α,β-meATP-activated electric current in DRG neurons (P2X3 receptor [2]; CCI rats + drug) | average optical density (P2X3 expression, immunohistochemistry, DRG) (P2X3 receptor [1]; puerarin alone i.p., no burn) | average optical density of P2X3 positive neurons (P2X3 receptor mRNA, in situ hybridization) (P2X3 receptor mRNA; puerarin alone, no CCI, 14 days) | protein expression level of P2X3 (after normalization with corresponding β-actin) (P2X3 protein; puerarin alone i.p., no burn) | ATP-activated electric current in DRG neurons in comparison to the idomethine treatment group (P2X3 receptor [2]; CCI rats + puerarin, p<0.05) | ATP-activated electric current in DRG neurons, difference from groups I, II and V (P2X3 receptor [2]; CCI rats + puerarin, p>0.05) | DRG neurons sensitive to exogenous ATP (P2X3 receptor [2]; puerarin alone, no CCI) [%] | α,β-meATP-activated electric current in DRG neurons (P2X3 receptor [2]; puerarin alone, no CCI)
1 | COc1ccc2c(c1)c(CC(=O)O)c(C)n2C(=O)c1ccc(Cl)cc1 [Indocin, Indometacin] | 1.16±0.03 | 1.14±0.01 | 1.14±0.03 | decreased | 89.7 | extremely low inward current | – | – | – | – | – | – | –
2 | O=c1c(-c2ccc(O)cc2)coc2c([C@@H]3O[C@H](CO)[C@@H](O)[C@H](O)[C@H]3O)c(O)ccc12 [puerarin] | 1.10±0.02 | 0.98±0.05 | 0.93±0.02 | – | 87.5 | extremely low inward current | 1.01±0.02 | 0.82±0.03 | 0.97±0.02 | lower | not significant | 89.2 | extremely low inward current
